The values that follow come from ChEMBL document CHEMBL1149223, “Non-nucleoside inhibitors of the hepatitis C virus NS5B polymerase: discovery and preliminary SAR of benzimidazole derivatives” (Bioorg Med Chem Lett, 2004).

For test [1], the target named is RNA-directed RNA polymerase (Hepacivirus hominis, UniProt O39930). Nature of the test: Inhibitory activity against NS5B polymerase of hepatitis C virus.
Test [2] has as its target Genome polyprotein (Human poliovirus 1 Mahoney, UniProt P03300). Nature of the test: Inhibitory activity against polio virus RNA polymerase.
Test [3] deals with Hepatitis C virus. Nature of the test: Inhibitory activity against HCV RNA replication. Format: functional, organism-based, Hepacivirus hominis.
Test [4] has as its target RNA-directed RNA polymerase (Hepacivirus hominis) (UniProt O39930). Nature of the test: Inhibitory activity against NS5B polymerase of hepatitis C virus at 7 uM concentration; (Range = 13-30).

Some results are limits rather than exact numbers.

RNA-directed RNA polymerase, sequence (O39930 whole entry): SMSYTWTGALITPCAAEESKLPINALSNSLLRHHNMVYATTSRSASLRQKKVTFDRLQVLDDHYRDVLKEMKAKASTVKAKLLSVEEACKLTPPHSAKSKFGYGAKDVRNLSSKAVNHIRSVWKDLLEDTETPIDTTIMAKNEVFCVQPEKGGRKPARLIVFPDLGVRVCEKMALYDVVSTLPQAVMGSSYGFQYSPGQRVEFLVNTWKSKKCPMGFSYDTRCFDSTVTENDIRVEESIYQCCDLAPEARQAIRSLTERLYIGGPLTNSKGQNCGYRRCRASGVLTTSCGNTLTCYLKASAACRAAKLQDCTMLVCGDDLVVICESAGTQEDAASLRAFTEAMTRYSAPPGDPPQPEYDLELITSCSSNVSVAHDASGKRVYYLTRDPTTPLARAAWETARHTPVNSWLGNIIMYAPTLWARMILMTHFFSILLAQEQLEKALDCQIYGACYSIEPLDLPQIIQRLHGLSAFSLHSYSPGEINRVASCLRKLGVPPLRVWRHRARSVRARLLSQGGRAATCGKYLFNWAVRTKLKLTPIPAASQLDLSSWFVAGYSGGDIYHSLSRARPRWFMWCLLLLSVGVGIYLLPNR
Genome polyprotein, sequence (P03300 1749-2209 limits assumed): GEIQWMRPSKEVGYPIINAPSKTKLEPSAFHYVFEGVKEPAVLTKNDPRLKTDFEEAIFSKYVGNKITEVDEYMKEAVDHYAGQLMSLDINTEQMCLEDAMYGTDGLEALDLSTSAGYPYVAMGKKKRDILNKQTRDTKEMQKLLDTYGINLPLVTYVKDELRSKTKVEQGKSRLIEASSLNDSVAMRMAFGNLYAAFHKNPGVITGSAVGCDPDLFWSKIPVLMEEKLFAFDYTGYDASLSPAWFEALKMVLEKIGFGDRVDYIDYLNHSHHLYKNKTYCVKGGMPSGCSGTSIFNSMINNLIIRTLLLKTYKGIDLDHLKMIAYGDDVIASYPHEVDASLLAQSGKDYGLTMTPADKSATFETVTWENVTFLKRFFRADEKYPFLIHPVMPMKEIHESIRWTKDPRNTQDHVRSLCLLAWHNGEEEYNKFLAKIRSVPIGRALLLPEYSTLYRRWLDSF
RNA-directed RNA polymerase (Hepacivirus hominis), sequence (O39930 1-591): as the sequence (O39930 whole entry) above

In turn, `Cc1ccc(-c2nc3cc(C(=O)O)ccc3n2C2CCCCC2)s1` showed an IC50 in test [1] greater than 30 µM.

Consider `O=C(O)c1ccc2c(c1)nc(-c1ccc(C(=O)O)s1)n2C1CCCCC1`, for which the IC50 in test [1] is greater than 30 µM.

As to `O=C(O)c1ccc2c(c1)nc(-c1cccnc1)n2C1CCCCC1`, the IC50 was 28 µM in test [1] and greater than 250 µM in test [2].

In test [1], `Cc1cc(C)c(-c2nc3cc(C(=O)O)ccc3n2C2CCCCC2)c(C)c1` displayed an IC50 of 120 µM.

In test [1], `CCc1ccc(-c2nc3cc(C(=O)O)ccc3n2C2CCCCC2)s1` gave a concentration for half-maximal inhibition (IC50) greater than 30 µM.

The compound `CC1CCC(n2c(-c3ccccn3)nc3cc(C(=O)O)ccc32)CC1` (centres undefined) showed an IC50 in test [1] of 50 µM. This counts as double-digit micromolar.

In the case of `O=C(O)c1ccc2c(c1)nc(-c1ccccn1)n2C1CCCCC1`, the EC50 in test [3] was greater than 100 µM. Besides, the IC50 is 4.3 µM in test [1] and greater than 500 µM in test [2].

The compound `Cc1cccc(-c2nc3cc(C(=O)O)ccc3n2C2CCCCC2)n1` showed an IC50 in test [1] greater than 30 µM.

Turning to `O=C(O)c1ccc2c(c1)nc(-c1cc3ccccc3o1)n2C1CCCCC1`, in test [1], the half-maximal inhibitory concentration (IC50) came out at 58 µM.

The compound `CCC(CC)n1c(-c2ccccn2)nc2cc(C(=O)O)ccc21` returned a concentration for half-maximal inhibition (IC50) in test [1] of 139 µM.

`O=C(O)c1ccc2c(c1)nc(-c1c[nH]nc1-c1ccccc1)n2C1CCCCC1` showed a half-inhibitory concentration (IC50) in test [1] greater than 30 µM.

Consider `COc1ccc(CCNC(=O)c2ccc3c(c2)nc(-c2ccccn2)n3C2CCCCC2)cc1OC`, for which the figures for the half-maximal inhibitory concentration (IC50) in test [1] and in test [2] were 12 µM and greater than 500 µM, respectively.

As to `O=C(O)c1ccc2c(c1)nc(C(=O)c1ccccc1)n2C1CCCCC1`, it took 44 µM to reach half-maximal inhibition in test [1] (IC50).

In test [1], `O=C(O)c1ccc2c(c1)nc(-c1ccccn1)n2C1CCCCCC1` came in with an IC50 of 49 µM.

With `CC1CCCCC1n1c(-c2ccccn2)nc2cc(C(=O)O)ccc21` (centres undefined), the 50% inhibitory concentration (IC50) in test [1] is 13 µM; in test [2] it was greater than 500 µM.

In the case of `COc1ccc(NC(=O)c2ccc3c(c2)nc(-c2ccccn2)n3C2CCCCC2)cc1OC`, in test [4], the inhibition came to 30%.

Take `O=C(O)c1ccc2c(c1)nc(-c1ccccc1)n2C1CCCCC1`: the IC50 was found to be 8.6 µM in test [1] and 250 µM in test [2].

On to `O=C(O)c1ccc2c(c1)nc(-c1ccco1)n2C1CCCCC1`, for which the 50% inhibitory concentration (IC50) in test [1] was 3.7 µM; in test [2], greater than 500 µM.

The compound `O=C(O)c1ccc2c(c1)nc(-c1ccc(-c3ccc(Cl)cc3)o1)n2C1CCCCC1` gave a 50% inhibitory concentration (IC50) in test [1] greater than 30 µM.

`CNC(=O)c1ccc2c(c1)nc(-c1ccccn1)n2C1CCCCC1` displayed an IC50 in test [1] of 28 µM.

Turning to `O=C(O)c1ccc2c(c1)nc(-c1ccccn1)n2C1CCCC1`, the IC50 is 12 µM in test [1] and greater than 500 µM in test [2].

Regarding `O=C(O)c1ccc2c(c1)nc(-c1nccs1)n2C1CCCCC1`, the figures for the concentration for half-maximal inhibition (IC50) in test [1] and in test [2] were 4.6 µM and greater than 500 µM, respectively.

As to `O=C(O)c1ccc2[nH]c(-c3ccccn3)nc2c1`, the half-maximal inhibitory concentration (IC50) in test [1] was greater than 500 µM.

`O=C(O)c1ccc2c(c1)nc(C1CCCCC1)n2C1CCCCC1` had an IC50 in test [1] of 20 µM.

The compound `O=C(O)c1ccc2c(c1)nc(-c1ccccn1)n2-c1ccccc1` displayed an IC50 in test [1] of 360 µM.

On to `O=C(O)c1ccc2c(c1)nc(-c1ccc[nH]1)n2C1CCCCC1`, for which the figures for the 50% inhibitory concentration (IC50) in test [1] and in test [2] were 5.9 µM and greater than 500 µM, respectively.

`Cc1cc(-c2nc3cc(C(=O)O)ccc3n2C2CCCCC2)oc1C` had an IC50 in test [1] greater than 30 µM.

On to `CC(C)n1c(-c2ccccn2)nc2cc(C(=O)O)ccc21`, for which, in test [1], half-maximal inhibition (IC50) was put at 408 µM.

The compound `O=C(O)c1ccc2c(c1)nc(-c1ccc3ccccc3n1)n2C1CCCCC1` had a half-maximal inhibitory concentration (IC50) in test [1] greater than 30 µM.

The compound `O=C(O)c1ccc2c(c1)nc(-c1cccs1)n2C1CCCCC1` displayed a concentration giving a half-maximal response (EC50) in test [3] greater than 100 µM. The IC50 in test [1] is 3.4 µM; in test [2] it was greater than 250 µM.

With `O=C(O)c1ccc2c(c1)nc(-c1ccncc1)n2C1CCCCC1`, the concentration for half-maximal inhibition (IC50) in test [1] is 17 µM; in test [2], greater than 500 µM.

`CCOC(=O)c1nc2cc(C(=O)O)ccc2n1C1CCCCC1` returned a half-maximal inhibitory concentration (IC50) in test [1] of 62 µM. In other words, the double-digit micromolar range.

Compound `O=C(O)c1ccc2c(c1)nc(-c1ccccn1)n2C1CCC1` showed an IC50 in test [1] of 76 µM.

Turning to `O=C(O)c1ccc2c(c1)ncn2C1CCCCC1`, in test [1], half-maximal inhibition (IC50) required 186 µM. Against the preceding compound, the IC50 is about 2.4-fold higher.

Take `O=C(O)c1ccc2c(c1)nc(-c1ncc[nH]1)n2C1CCCCC1`: the half-maximal inhibitory concentration (IC50) was 10 µM in test [1] and greater than 250 µM in test [2].

With `Cc1[nH]cnc1-c1nc2cc(C(=O)O)ccc2n1C1CCCCC1`, in test [1], the IC50 is greater than 30 µM.

On to `COc1ccc(CNC(=O)c2ccc3c(c2)nc(-c2ccccn2)n3C2CCCCC2)cc1OC`, for which the IC50 in test [1] was 7.1 µM; in test [2] it was greater than 500 µM.

Regarding `Cc1c(-c2nc3cc(C(=O)O)ccc3n2C2CCCCC2)[nH]c2ccccc12`, the half-maximal inhibitory concentration (IC50) in test [1] is greater than 30 µM.

As for `CN(C)CCCNC(=O)COc1ccc(-c2nc3cc(C(=O)O)ccc3n2C2CCCCC2)cc1`, in test [1], inhibition was half-maximal at 13 µM (IC50).

As for `CC(C)=Cc1nc2cc(C(=O)O)ccc2n1C1CCCCC1`, the IC50 is 19 µM in test [1] and greater than 500 µM in test [2].

`NC(=O)c1ccc2c(c1)nc(-c1ccccn1)n2C1CCCCC1` registered an IC50 in test [1] of 27 µM. This counts as double-digit micromolar.

With `Cn1cccc1-c1nc2cc(C(=O)O)ccc2n1C1CCCCC1`, the results for the IC50 in test [1] and in test [2] were 1.8 µM and greater than 500 µM, respectively.

`O=C(O)c1ccc2c(c1)nc(-c1ccc(C(=O)O)o1)n2C1CCCCC1` gave an IC50 in test [1] greater than 30 µM.

Take `CCc1ccc(-c2nc3cc(C(=O)O)ccc3n2C2CCCCC2)o1`: the half-inhibitory concentration (IC50) in test [1] is greater than 30 µM.

With `O=C(O)c1ccc2c(c1)nc(-c1ccc(CO)o1)n2C1CCCCC1`, the half-inhibitory concentration (IC50) in test [1] is greater than 30 µM.

The compound `O=C(O)c1ccc2c(c1)nc(-c1ccsc1)n2C1CCCCC1` displayed a concentration for a half-maximal effect (EC50) in test [3] greater than 100 µM. The concentration for half-maximal inhibition (IC50) in test [1] was 6.33 µM; in test [2], greater than 250 µM.

For `O=C(O)c1ccc2c(c1)nc(-c1ccc(Br)o1)n2C1CCCCC1`, the concentration for half-maximal inhibition (IC50) in test [1] was greater than 30 µM.

On to `O=C(O)c1ccc2c(c1)nc(-c1ccoc1)n2C1CCCCC1`, for which, in test [3], the EC50 is greater than 100 µM. The 50% inhibitory concentration (IC50) in test [1] was 1.6 µM; in test [2] it was greater than 250 µM.
